Laboratory results: patent publication US20130251731A1, “Tau Acetylation in the Pathogenesis of Alzheimers Disease and Other Related Tauopathies” (THE TRUSTEES OF THE UNIVERSITY OF PENNSYLVANIA, priority 2012, published 2013)

What was measured:
[1] = system: MT bundling in QBI-293 cells; assay: MT bundling in tau-transfected QBI-293 cells (immunofluorescence); type: cell-based; conditions: ten fields/transfection
Description: FIG. 2, comprising FIG. 2A through FIG. 2K, depicts the results of experiments which illustrate that tau acetylation in cells inhibits tau-mediated MT stabilization. FIG. 2A depicts the results of an experiment where Doxycycline (Dox)-treated HEK-T40 cells were cultured in the presence of either trichostatin A (TSA), nicotinamide (NCA) or both and pulse labelled with [^3H]-acetate for 2 h. Tau was immunoprecipitated, treated with λ-phosphatase where indicated, and analyzed by SDS-PAGE followed by autoradiography and exposure to film for 2 weeks. Total cellular lysates were analyzed by immunoblotting using anti-tau (T14/T46), PHF-1 and GAPDH antibodies. FIG. 2B illustrates the results of an experiment where cells transfected with CBP were treated with TSA and acetylated tau levels were determined by immunoprecipitation/immunoblot analysis using anti-acetylated lysine antibody. Cellular lysates were immunoblotted using T14/46, PHF-1, AT8 and GAPDH antibodies. FIG. 2C depicts the results of an experiment where cells were transfected with CBP and either wild-type (WT) HDAC6 or the catalytically dead (CD) HDAC6-H611A mutant and tau acetylation was determined by immunoblotting similar to FIG. 2B above. FIG. 2D depicts the results of an experiment where QBI-293 cells were transfected with WT T40, 2KR (K280/281R), 3KR (K163/280/281R) or 4KR (K163/280/281/369R) mutant T40 and cell lysates were immunoblotted using anti-acetyl-lysine and total tau (T14/T46) antibodies. FIG. 2E through FIG. 2G are images illustrating the results of an experiment where QBI-293 cells were transfected with WT T40 (FIG. 2E) and total MT bundling was determined by immunofluorescence using anti-acetylated tubulin antibodies as shown for WT (FIG. 2F). Merged images indicate stabilized microtubules as shown for WT (FIG. 2G). FIG. 2H through FIG. 2J are images illustrating the results of an experiment where QBI-293 cells were transfected with 4KQ (K163/280/281/369Q) (FIG. 2H) and MT bundling was determined by immunofluorescence using anti-acetylated tubulin antibodies as shown for 4KQ (FIG. 2I) and merged images (FIG. 2J). Representative images are shown from n=4 independent experiments. Note, WT tau (FIG. 2E-FIG. 2G), but not 4KQ (FIG. 2H-FIG. 2J), promotes robust MT bundling. Scale bar, […]. FIG. 2K is a graph illustrating the results of an experiment where QBI-293 cells were transfected with WT T40, K280Q, 4KQ (K163/280/281/369Q) or 4KR mutant plasmids and MT bundling was determined from tau-expressing cells by quantification of ten fields/transfection and values are represented as % MT bundling from tau-expressing cells. Error bars indicate standard error of the mean. *P value=0.006, ***P value=8.46×10^−6 as determined by Student's t-test. […]

[2] = molecular target: T1, tau-K18 acetyltransferase activity (Homo sapiens, UniProt P10636); assay: Tau auto-acetylation filter binding assay, cofactor inhibition analysis; type: biochemical; conditions: 25 μM tau, 450 μM [3H]-acetyl-CoA; for IC50: 1 hr at 37° C., read-out: IC50 for inhibition of acetyl-CoA-dependent tau-K18 acetyltransferase activity
T1 construct: made in house
Description: Reactions were assembled in 50 μl of reaction buffer containing 50 mM Tris pH 8.0, 100 μM EDTA, and 10% glycerol. Unless specifically noted, reactions contained 25 μM of either WT tau-K18 or tau-K18-2CA mutant. The reactions were initiated by the addition of [^3H]-acetyl-CoA (2.35 Ci mmol^−1, Perkin Elmer) at concentrations ranging from 2.5 μM to 1 mM, incubated at 37° C., and allowed to proceed for 1 hr (unless otherwise noted). Reactions were stopped by the addition of 10 μl of 3 mM CoA, and 25 μl of the reaction was then spotted to a P81 filter paper (Whatman), washed in 10 mM HEPES pH 7.5 three times, and dried using acetone. Incorporated [^3H]-acetyl-CoA was then measured using the Perkin Elmer Tri-Carb 2800TR Liquid Scintillation Analyzer, and the molar amount of acetyl groups incorporated into tau were calculated from a standard curve of the radiolabeled acetyl-CoA.
Reactions were performed in the buffer described above and at 25 μM tau. Reactions included between 1 and 4000 μM of the inhibitors: CoA, acetonyl-CoA, or pantothenic acid. All reactions were initiated by the addition of 450 μM [^3H]-acetyl-CoA (2.35 Ci mmol^−1, Perkin Elmer), incubated for 1 hr at 37° C., and stopped by spotting 25 μl of the reaction to the P81 filter paper. Radiolabeled incorporation was measured as stated above. All data were analyzed using GraphPad Prism to determine kinetic parameters and IC50 values.

[3] = system: acetylated tau in HEK-T40 cells; assay: Tau acetylation in HEK-T40 cells ([3H]-acetate labelling / immunoprecipitation); type: cell-based, human
Description: FIG. 2, comprising FIG. 2A through FIG. 2K, depicts the results of experiments which illustrate that tau acetylation in cells inhibits tau-mediated MT stabilization. FIG. 2A depicts the results of an experiment where Doxycycline (Dox)-treated HEK-T40 cells were cultured in the presence of either trichostatin A (TSA), nicotinamide (NCA) or both and pulse labelled with [^3H]-acetate for 2 h. Tau was immunoprecipitated, treated with λ-phosphatase where indicated, and analyzed by SDS-PAGE followed by autoradiography and exposure to film for 2 weeks. Total cellular lysates were analyzed by immunoblotting using anti-tau (T14/T46), PHF-1 and GAPDH antibodies. FIG. 2B illustrates the results of an experiment where cells transfected with CBP were treated with TSA and acetylated tau levels were determined by immunoprecipitation/immunoblot analysis using anti-acetylated lysine antibody. […] FIG. 2C depicts the results of an experiment where cells were transfected with CBP and either wild-type (WT) HDAC6 or the catalytically dead (CD) HDAC6-H611A mutant and tau acetylation was determined by immunoblotting similar to FIG. 2B above. […] FIG. 2E through FIG. 2G are images illustrating the results of an experiment where QBI-293 cells were transfected with WT T40 (FIG. 2E) and total MT bundling was determined by immunofluorescence using anti-acetylated tubulin antibodies as shown for WT (FIG. 2F). […]

[4] = system: histones and microtubules; conditions: substrate as listed (H4-21, H3p19, H3, microtubules); cited from earlier work
[5] = system: auto-acetylated substrate; conditions: auto-acetylation, cited from earlier work; for Km: read-out: Km AcCoA [auto]
[6] = Heparin-induced tau fibrillization assay quantified by Thioflavin-T binding; type: biochemical; conditions: 10 μM tau proteins, 10 μM heparin, 4-h incubation
Description: (§1) Recombinant full-length T40, 4R-tau MT-binding domain K18, or tau fibrils were acetylated by incubation with [^14C]-labeled acetyl-CoA in the presence or absence of CBP. FIG. 1A illustrates that the reaction products were analyzed by SDS-PAGE and Coomassie blue staining followed by overnight radiographic exposure using STORM phosphor-imager software. FIG. 1B depicts the results of an experiment where T40 or K18 proteins were incubated with acetyl-CoA and/or recombinant CBP and reaction products were subjected to immunoblot analysis using a polyclonal anti-tau-specific antibody for MT repeat domain (E10) and an anti-acetyl-lysine antibody. FIG. 1C is a graph depicting the MT assembly activities of K18 proteins as evaluated in light-scattering assays. Tubulin monomers (30 μM) were mixed with 40 μM tau proteins in MT assembly buffer supplemented with 2 mM guanosine triphosphate. MT assembly was determined by monitoring absorbance every minute at 350 nm using a SpectraMax plate reader. […] FIG. 1D is a graph illustrating the results of experiments where Tau proteins (10 μM) were evaluated in fibrillization reactions using 10 μM heparin to induce assembly. […] Samples were analysed by SDS-PAGE and Coomassie staining to monitor fibril formation. FIG. 1F illustrates the results of experiments where four-hour time points from fibrillization reactions were analysed by negative-staining EM. […]
Tau K18 protein was either mock acetylated or acetylated in vitro using acetyl-CoA substrate as indicated elsewhere herein. […] Protein concentrations were determined using the bicinchoninic acid protein assay (Pierce) with bovine serum albumin as the standard. Acetylated K18 and mock-treated K18 were assessed by a light-scattering assay as described elsewhere herein. […] The extent of fibrillization was assessed at different time points by ThT fluorescence assay, sedimentation analysis and negative staining EM as described elsewhere herein. For ThT fluorescence assay, ThT diluted in 100 mM glycine buffer (pH 8.5) was added and fluorometric readings were taken at 450 nm (excitation) and 510 nm (emission). […]

tubulin = assay: MT assembly light-scattering assay; type: biochemical; conditions: 30 μM tubulin, 40 μM tau proteins, 2 mM GTP
Description: as §1

T1 sequence (P10636 561-685 limits assumed): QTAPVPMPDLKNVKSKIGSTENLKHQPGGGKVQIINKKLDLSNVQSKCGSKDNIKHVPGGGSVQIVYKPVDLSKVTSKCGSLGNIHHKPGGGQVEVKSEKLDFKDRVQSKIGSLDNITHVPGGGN

Molecule: 4KQ: tau acetylation mimetic K163/280/281/369Q
- % MT bundling from tau-expressing cells [1]: ~7%

Molecule: 4KR: tau non-mimetic mutant K163/280/281/369R
- % MT bundling from tau-expressing cells [1]: ~50%

Molecule: CC(C)(COP(=O)(O)OP(=O)(O)OC[C@H]1O[C@@H](n2cnc3c(N)ncnc32)[C@H](O)[C@@H]1OP(=O)(O)O)[C@@H](O)C(=O)NCCC(=O)NCCS [CoA]
- IC50 [2]: 59 µM

Molecule: CC(=O)CSCCNC(=O)CCNC(=O)[C@H](O)C(C)(C)COP(=O)(O)OP(=O)(O)OC[C@H]1O[C@@H](n2cnc3c(N)ncnc32)[C@H](O)[C@@H]1OP(=O)(O)O [acetonyl-CoA]
- IC50 [2]: 668 µM

Molecule: CC(C)(CO)[C@@H](O)C(=O)NCCC(=O)O [pantothenic acid]
- inhibition of tau activity (cofactor competition) ([2]; between 1 and 4000 μM inhibitor): did not show significant inhibition

Molecule: CC(/C=C/C(=O)NO)=C\[C@@H](C)C(=O)c1ccc(N(C)C)cc1 [trichostatin A]
- acetylated tau levels ([3]; HEK-T40 cells pulse labelled with [3H]-acetate for 2 h): dramatic increase in acetylated tau levels
- acetylated tau (anti-acetyl-lysine) ([3]; HEK-T40 cells transiently transfected with CBP): dramatic accumulation of acetylated tau

Molecule: ESA1: MYST-family acetyltransferase, literature kinetics
- Kcat [4]: 0.122 s⁻¹
- Km [5]: 9.4 µM

Molecule: K18-K311D: K18 containing the K311D mutation, negative control
- fibrillization (ThT) [6]: did not fibrillize

Molecule: K280Q: single K280Q acetylation mimetic of T40 tau
- % MT bundling from tau-expressing cells [1]: ~40%

Molecule: Rtt109 + Vps75: acetyltransferase listed for literature kinetics comparison
- Kcat [4]: 0.375 s⁻¹
- Kcat [auto] [5]: 0.002 s⁻¹
- Km [5]: 912 µM

Molecule: WT tau: wild-type longest human tau isoform (T40) expressed in cells
- % MT bundling from tau-expressing cells [1]: ~55%

Molecule: acetylated K18: tau K18 protein acetylated in vitro using acetyl-CoA and CBP
- fibrillization (ThT) [6]: fibrillized rapidly by 3 h
- MT assembly (absorbance at 350 nm) (tubulin): failed to promote MT assembly

Molecule: p300: nuclear acetyltransferase, literature kinetics
- Kcat [4]: 0.46 s⁻¹
- Km [5]: 3310 µM
